{"source": "patent US20210244735A1", "about": "“COMPOSITIONS AND METHODS FOR TREATING MYELOFIBROSIS” (Impact Biomedicines, Inc., priority 2010, published 2021)", "key": {"human caco-2 cells": {"tested_on": "human caco-2 cells", "experiment": "caco-2 permeability", "format": "in vitro ADME", "details": "caco-2 permeability data"}, "JAK2V617F allele burden": {"tested_on": "JAK2V617F allele burden", "experiment": "Phase 1 study: JAK2V617F allele burden in granulocyte fraction of peripheral blood", "format": "in vivo, human", "procedure": "(§1) Responses were measured every 4 weeks per International Working Group for MPN Research and Treatment (IWG-MRT) criteria (Tefferi A et al., Blood 108:1497-1503, 2006). Assessment of bone marrow histology was performed at baseline and every 24 weeks of therapy. Changes in JAK2V 617F allele burden in the granulocyte fraction of peripheral blood were measured as previously described (Kittur J et al., Cancer 109:2279-2284, 2007); the assessments were at baseline and every 4 weeks during the first 6 cycles, and every 6th cycle of therapy in the extension study."}, "[1]": {"tested_on": "IL-6, IL-8, IL-2 and TNF-α", "experiment": "Phase 1 study: cytokine assessment by multiplexed sandwich ELISAs", "format": "in vivo, human", "details": "relative to baseline during treatment; dihydrochloride monohydrate", "procedure": "Cytokine Assessment: Samples for cytokine measurement were collected at baseline and every 4 weeks thereafter. Cytokine levels were measured using multiplexed sandwich ELISAs (Millipore, St. Charles, Mo.)."}, "[2]": {"experiment": "Bioavailability in multiple species", "details": "in vivo, oral"}, "[3]": {"experiment": "Drug substance blend compatibility with fillers and lubricants", "format": "physicochemical", "details": "blends with lactose, mannitol, MCC Avicel PH102, MCC ProSolv 90 HD; magnesium stearate, Pruv; 60° C./ambient humidity", "procedure": "A matrix of formulation blends was designed to study the compatibility of TG101348 di-HCl monohydrate with four fillers and two lubricants (Table 17). Blends were prepared at a scale of 2.5 g each by prescreening all components through a 500 μm sieve, blending all components except the lubricant using aTurbula T2B blender for 10 min at 22 rpm, screening the blend through a 500 μm sieve, blending for 10 min, adding lubricant (weight adjusted) and blending for 5 min The blends were manufactured and stored in 30 mL amber HDPE bottles under primary (60° C./ambient humidity) and backup conditions (40° C./75% RH, 25° C./60% RH, and 5° C.)."}, "subjects with MF": {"tested_on": "subjects with MF", "experiment": "Phase 1 dose-escalation study MF-TG101348-001 (and extension MF-TG101348-002): clinical response (spleen, leukocytosis, thrombocytosis, constitutional symptoms, bone marrow)", "format": "in vivo, human", "details": "for subjects achieving a normal WBC count: following 6 cycles; for subjects achieving a normal platelet count: after 6 cycles; for subjects with minimum 25% decrease in palpable spleen size: intent-to-treat", "procedure": "The key eligibility criteria for subjects included: Myelofibrosis (PMF or post-PV/ET MF); High-risk or intermediate-risk with symptomatic splenomegaly/unresponsive to available therapy; ECOG performance status ≤2; ANC≥1×10^9/L; Platelet count≥50×10^9/L; Serum creatinine ≤2 mg/dL; Total bilirubin ≤2 mg/dL; AST/ALT≤3X upper limit of normal.\nAll patients provided written informed consent.\nas §1"}, "[4]": {"experiment": "Compatibility with capsule shells, accelerated stability", "format": "physicochemical", "details": "250 mg filled capsules, 40° C./75% RH and 25° C./60% RH, t=1, 2, and 3 weeks", "procedure": "Hard gelatin and hydroxypropylmethyl cellulose (HPMC) capsule shells (size […]) were filled with 250 mg of TG101348 di-HCl monohydrate. The filled capsules were placed on accelerated stability (40° C./75% relative humidity (RH) and 25° C./60% RH). The capsules were packaged into 30 mL (1 oz) amber high density polyethylene (HDPE) bottles."}, "[5]": {"details": "MTD cohort, after 1 cycle (n=12)"}, "[6]": {"details": "MTD cohort, after 1 cycle, 8 subjects at baseline"}, "[7]": {"details": "MTD cohort, after 6 cycles (n=16)"}, "[8]": {"details": "at 3 months, 33 patients who started at >680 mg and completed at least 3 cycles"}}, "note": "Entries after “also recorded” stand apart in the source; their conditions may differ. Counter-ions that a name gives are not always drawn.", "data": [{"smiles": "Cc1cnc(Nc2ccc(OCCN3CCCC3)cc2)nc1Nc1cccc(S(=O)(=O)NC(C)(C)C)c1", "note": "[TG101348, N-tert-butyl-3-[(5-methyl-2-{[4-(2-pyrrolidin-1-ylethoxy)phenyl]amino}pyrimidin-4-yl)amino]benzenesulfonamide dihydrochloride monohydrate]", "values": [{"measurement": "permeability", "setting": "human caco-2 cells", "result": "on the borderline between “low” and “high” permeability"}, {"measurement": "patients with ≥50% reduction in VF allele burden", "setting": "JAK2V617F allele burden; 48 evaluable VF-positive patients, last available follow-up", "result": "21 (44%) patients (%)"}, {"measurement": "subjects with ≥50% decrease in JAK2V617F", "setting": "JAK2V617F allele burden; baseline >20%, 18 subjects who completed 12 cycles", "result": "7 (39%) subjects (%)"}, {"measurement": "JAK2V617F allele burden compared to pre-study baseline", "setting": "JAK2V617F allele burden; end of cycle 6 and cycle 12, Wilcoxon matched-pair signed-rank test", "result": "significant decrease"}, {"measurement": "effect on cytokine levels (IL-6, IL-8, IL-2, TNF-α)", "setting": "[1]", "result": "no significant changes; also recorded: minimal effect; also recorded: no consistent changes"}, {"measurement": "bioavailability", "setting": "[2]", "result": "20 to 25", "unit": "%"}, {"measurement": "compatibility with fillers and lubricants: changes in attributes (appearance, assay, impurities)", "setting": "[3]", "result": "no incompatibilities"}, {"measurement": "normal WBC count at last follow-up visit", "setting": "subjects with MF; 21 patients with leukocytosis at baseline who started at ≥680 mg", "result": 70, "unit": "%"}, {"measurement": "complete response in splenomegaly", "setting": "subjects with MF; Example 2 conclusions", "result": "~30", "unit": "%"}, {"measurement": "proportion achieving ≥50% reduction in palpable splenomegaly", "setting": "subjects with MF; Example 2 conclusions", "result": "two-thirds"}, {"measurement": "subjects achieving CI", "setting": "subjects with MF; JAK2V617F-negative MF, 4 subjects who completed 6 cycles", "result": 75, "unit": "%"}, {"measurement": "night sweats: complete resolution", "setting": "subjects with MF; MTD cohort, after 1 cycle", "result": "64 % of subjects"}, {"measurement": "cough: complete resolution", "setting": "subjects with MF; [5]", "result": 67, "unit": "%"}, {"measurement": "cough: improvement", "setting": "subjects with MF; [5]", "result": 75, "unit": "%"}, {"measurement": "pruritus: complete resolution", "setting": "subjects with MF; [6]", "result": 50, "unit": "%"}, {"measurement": "pruritus: improvement", "setting": "subjects with MF; [6]", "result": 75, "unit": "%"}, {"measurement": "early satiety: complete resolution", "setting": "subjects with MF; MTD cohort, after 2 cycles (n=27)", "result": 56, "unit": "%"}, {"measurement": "night sweats: complete resolution", "setting": "subjects with MF; MTD cohort, after 6 cycles (n=9)", "result": 89, "unit": "%"}, {"measurement": "fatigue: complete resolution", "setting": "subjects with MF; [7]", "result": 25, "unit": "%"}, {"measurement": "fatigue: improvement", "setting": "subjects with MF; [7]", "result": 63, "unit": "%"}, {"measurement": "subjects with disease progression", "setting": "subjects with MF; all subjects", "result": "Three"}, {"measurement": "reduction in palpable spleen size at least 50%", "setting": "subjects with MF; [8]", "result": "22 (67%) patients (%)"}, {"measurement": "spleen became non-palpable", "setting": "subjects with MF; [8]", "result": "9 (27%) patients (%)"}, {"measurement": "normal WBC counts at follow-up visit", "setting": "subjects with MF; baseline WBC count >11×10^9/L, follow-up doses 360 to 680 mg/day", "result": "73 % of subjects"}, {"measurement": "subjects achieving a normal WBC count", "setting": "subjects with MF; baseline leukocytosis (WBC >11×10^9/L), across doses (16 of 28)", "result": 57, "unit": "%"}, {"measurement": "subjects achieving a normal WBC count", "setting": "subjects with MF; baseline leukocytosis, MTD cohort (13 of 18)", "result": 72, "unit": "%"}, {"measurement": "effect on thrombocytosis", "setting": "subjects with MF; baseline platelet count >450×10^9/L", "result": "able to reduce platelet counts"}, {"measurement": "subjects achieving a normal platelet count", "setting": "subjects with MF; baseline thrombocytosis (platelet count >450×10^9/L), across doses (10 subjects)", "result": 90, "unit": "%"}, {"measurement": "subjects achieving a normal platelet count", "setting": "subjects with MF; baseline thrombocytosis, MTD cohort (7 subjects)", "result": 100, "unit": "%"}, {"measurement": "≥50% decrease in palpable spleen size persistent for at least 8 weeks (Clinical Improvement per IWG-MRT)", "setting": "subjects with MF; by cycle 6, MTD cohort", "result": "45 % of subjects"}, {"measurement": "subjects with minimum 25% decrease in palpable spleen size", "setting": "subjects with MF; by cycle 6, MTD cohort", "result": 65, "unit": "%"}, {"measurement": "≥50% decrease in palpable spleen size persistent for at least 8 weeks (Clinical Improvement per IWG-MRT)", "setting": "subjects with MF; by cycle 6, overall", "result": "39 % of subjects"}, {"measurement": "subjects with minimum 25% decrease in palpable spleen size", "setting": "subjects with MF; by cycle 6, overall", "result": 61, "unit": "%"}, {"measurement": "spleen responses (CI)", "setting": "subjects with MF; by cycle 12, MTD cohort", "result": "50 % of subjects"}, {"measurement": "spleen responses (CI)", "setting": "subjects with MF; by cycle 12, overall", "result": "48 % of subjects"}, {"measurement": "effect on constitutional symptoms (early satiety, fatigue, cough, pruritus, night sweats)", "setting": "subjects with MF; evaluable subjects, baseline versus last visit, dihydrochloride monohydrate", "result": "clinically significant benefit or resolution; also recorded: able to improve; also recorded: remarkable activity"}, {"measurement": "pruritus", "setting": "subjects with MF; one subject with JAK2V617F-positive PMF, started at 680 mg/day", "result": "complete resolution"}, {"measurement": "bone marrow fibrosis after 18 cycles", "setting": "subjects with MF; person, V617F negative PMF, baseline 3+, starting dose 240 mg/day, follow-up 440 mg/day", "result": 0}, {"measurement": "bone marrow cellularity after 18 cycles", "setting": "subjects with MF; person, V617F negative PMF, baseline 60%, starting dose 30 mg/day, follow-up 520 mg/day", "result": "5-10%"}, {"measurement": "changes in attributes (appearance, assay, impurities) in capsule shells", "setting": "[4]", "result": "No appreciable changes"}]}]}
